Tests used:
PKR K410E = PKR K410E (Homo sapiens, UniProt P30613, K410E); test: PKR mutant assay (K410E), AC50, LDH/NADH-coupled, absorbance at 340 nm; assay type: biochemical; settings: for AC50: Table 2, enzyme assay; for EC50: Table 4, AC50, enzyme assay
In short: (§1)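 In this coupled kinetic format, PKR converts PEP and ADP to pyruvate, which LDH reduces while oxidising NADH. Test compounds, diluted from 10 mM DMSO stocks to a 100 μM top concentration, were preincubated 60 min before ADP was added.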

PKR R510Q = PKR R510Q (Homo sapiens, UniProt P30613, R510Q); test: PKR mutant assay (R510Q), AC50, LDH/NADH-coupled, absorbance at 340 nm; assay type: biochemical; settings: for AC50: Table 2, enzyme assay, read-out: PK R510Q AC50; for EC50: read-out: PK R510Q
Chain of PKR R510Q (P30613 whole entry R510Q): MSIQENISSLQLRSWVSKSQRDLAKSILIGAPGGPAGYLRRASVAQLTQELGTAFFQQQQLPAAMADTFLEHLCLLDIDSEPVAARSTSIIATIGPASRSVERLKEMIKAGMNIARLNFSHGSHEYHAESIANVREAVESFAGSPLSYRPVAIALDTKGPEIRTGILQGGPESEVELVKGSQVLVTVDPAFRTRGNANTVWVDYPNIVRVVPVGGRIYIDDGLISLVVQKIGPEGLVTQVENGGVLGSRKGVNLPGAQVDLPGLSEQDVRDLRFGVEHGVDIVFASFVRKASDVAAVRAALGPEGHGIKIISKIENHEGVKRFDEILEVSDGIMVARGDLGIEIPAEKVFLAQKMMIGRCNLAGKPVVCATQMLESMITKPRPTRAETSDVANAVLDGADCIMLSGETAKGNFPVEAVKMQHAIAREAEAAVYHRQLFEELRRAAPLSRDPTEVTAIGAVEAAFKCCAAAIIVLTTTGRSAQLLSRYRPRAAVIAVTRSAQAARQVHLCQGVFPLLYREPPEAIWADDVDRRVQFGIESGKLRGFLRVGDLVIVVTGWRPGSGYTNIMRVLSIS
In short: as §1

wild type PKR [1] = biological target: T1, wild type PKR (Homo sapiens, UniProt P30613); test: PKR (wild type) enzyme AC50 assay, LDH/NADH-coupled, absorbance at 340 nm; assay type: biochemical; settings: for AC50: Table 2, enzyme assay, read-out: PKR WT AC50; for EC50: read-out: PKR WT
T1 sequence (P30613 whole entry): as the sequence (P30613 whole entry R510Q) above, with Q510R counted along it
In short: as §1

wild type PKR [2] = biological target: T1, wild type PKR; test: Cell based ATP assay in purified red blood cells (Cell-Titer-Glo); set-up: endogenous in cells; host or cells: purified red blood cells from healthy volunteers; settings: overnight at 37° C., ATP levels
In short: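 ATP levels were quantified by Cell-Titer-Glo after overnight 37 °C exposure of cells to compound (1:4 dilution series, 0.1% DMSO final). The cells were human erythrocytes, filter-purified to remove leukocytes and plated at 1×10^7 cells/mL in AGAM medium.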

Chain of PKR K410E (P30613 whole entry K410E): as the sequence (P30613 whole entry R510Q) above, with K410E, Q510R counted along it

| Compound | AC50 (PKR K410E) | AC50 (PKR R510Q) | AC50 (wild type PKR [1]) | EC50 (PKR K410E) | EC50 (PKR R510Q; Table 4, AC50, enzyme assay) | EC50 (wild type PKR [1]; Table 4, AC50, enzyme assay) | EC50 (wild type PKR [2]; Table 4, AC50, RBCs) | further results |
| --- | --- | --- | --- | --- | --- | --- | --- | --- |
| Cn1c2nc(Cc3ccc(=O)[nH]c3)sc2c2cnn(Cc3cccc4[nH]ncc34)c(=O)c21 [Compound 174] | 301 to 800 nM | > 800 nM | > 800 nM | – | – | – | – | Cell based ATP assay AC50 (wild type PKR [2]; Table 2, RBCs): No Fit |
| Cn1c2nc(Cc3cc[nH]n3)sc2c2cnn(Cc3ccc(C#N)cc3)c(=O)c21 [Compound 175] | < 300 nM | < 300 nM | < 300 nM | – | – | – | – | AC50 (wild type PKR [2]; Table 2, RBCs): ≤ 1000 nM |
| Cn1c2nc(Cc3cc[nH]n3)sc2c2cnn(Cc3ccc(C(N)=O)cc3)c(=O)c21 [Compound 176] | > 800 nM | > 800 nM | > 800 nM | – | – | – | – | AC50 (wild type PKR [2]; Table 2, RBCs): > 1000 nM |
| Cn1c2nc(C(N)c3cc[nH]n3)sc2c2cnn(Cc3cccc4[nH]ncc34)c(=O)c21 (centres unmarked) [Compound 177] | < 300 nM | < 300 nM | < 300 nM | – | – | – | – | AC50 (wild type PKR [2]; Table 2, RBCs): ≤ 1000 nM |
| CC(=O)NC(c1cc[nH]n1)c1nc2c(s1)c1cnn(Cc3cccc4[nH]ncc34)c(=O)c1n2C (centres unmarked) [Compound 178] | > 800 nM | > 800 nM | > 800 nM | – | – | – | – | AC50 (wild type PKR [2]; Table 2, RBCs): > 1000 nM |
| Cn1c2nc(NC(=O)Cc3cc[nH]n3)sc2c2cnn(Cc3cccc4[nH]ncc34)c(=O)c21 [Compound 180] | > 800 nM | > 800 nM | > 800 nM | – | – | – | – | AC50 (wild type PKR [2]; Table 2, RBCs): > 1000 nM |
| Cn1c2nc(Cc3cccc4cn[nH]c34)sc2c2cnn(Cc3cccc4[nH]ncc34)c(=O)c21 [Compound 181] | < 300 nM | < 300 nM | < 300 nM | – | – | – | – | AC50 (wild type PKR [2]; Table 2, RBCs): ≤ 1000 nM |
| Cn1c2nc(Cc3cc[nH]n3)sc2c2cnn(Cc3cccc(C#N)c3)c(=O)c21 [Compound 182] | < 300 nM | < 300 nM | < 300 nM | – | – | – | – | AC50 (wild type PKR [2]; Table 2, RBCs): ≤ 1000 nM |
| Cn1c2nc(Cc3cc[nH]n3)sc2c2cnn(Cc3cccc(C(N)=O)c3)c(=O)c21 [Compound 183] | < 300 nM | < 300 nM | < 300 nM | – | – | – | – | AC50 (wild type PKR [2]; Table 2, RBCs): ≤ 1000 nM |
| Cn1c2nc(Cc3cn[nH]c3)sc2c2cnn(Cc3cccc4[nH]ncc34)c(=O)c21 [Compound 184] | < 300 nM | < 300 nM | < 300 nM | – | – | – | – | AC50 (wild type PKR [2]; Table 2, RBCs): ≤ 1000 nM |
| Cn1c2nc(Cc3cnoc3)sc2c2cnn(Cc3cccc4[nH]ncc34)c(=O)c21 [Compound 185] | 301 to 800 nM | 301 to 800 nM | > 800 nM | – | – | – | – | AC50 (wild type PKR [2]; Table 2, RBCs): > 1000 nM |
| Cn1cc(Cc2nc3c(s2)c2cnn(Cc4cccc5[nH]ncc45)c(=O)c2n3C)cn1 [Compound 186] | – | – | – | > 800 nM | 301 to 800 nM | > 800 nM | ≤ 1000 nM | – |
| Cn1c2nc(-n3cnc(CS(=O)(=O)c4ccccc4)c3)sc2c2cnn(Cc3cccc4[nH]ncc34)c(=O)c21 [Compound 187] | – | – | – | > 800 nM | – | – | – | PK R510Q (PKR R510Q; Table 4, AC50, enzyme assay): No Fit; PKR WT (wild type PKR [1]; Table 4, AC50, enzyme assay): No Fit; Cell based ATP assay (wild type PKR [2]; Table 4, AC50, RBCs): No Fit |
| CC(=O)c1cccc(Cn2ncc3c4sc(Cc5cc[nH]n5)nc4n(C)c3c2=O)c1 [Compound 190] | – | – | – | < 300 nM | < 300 nM | < 300 nM | ≤ 1000 nM | – |
| CC(=O)c1cccc(CC(c2cc[nH]n2)c2nc3c(s2)c2cnn(Cc4cccc(C(C)=O)c4)c(=O)c2n3C)c1 (centres unmarked) [Compound 192] | – | – | – | > 800 nM | > 800 nM | > 800 nM | > 1000 nM | – |
| Cn1c2nc(Cc3cc[nH]n3)sc2c2cnn(Cc3ccccc3)c(=O)c21 [Compound 193] | – | – | – | < 300 nM | < 300 nM | < 300 nM | ≤ 1000 nM | – |
| CC(c1cc[nH]n1)c1nc2c(s1)c1cnn(Cc3cccc4[nH]ncc34)c(=O)c1n2C (centres unmarked) [Compound 195] | – | – | – | < 300 nM | < 300 nM | < 300 nM | ≤ 1000 nM | – |
| Cn1c2nc(Cc3ncsc3C(N)=O)sc2c2cnn(Cc3cccc4[nH]ncc34)c(=O)c21 [Compound 196] | – | – | – | < 300 nM | < 300 nM | < 300 nM | ≤ 1000 nM | – |

| Compound | AC50 (PKR K410E) | AC50 (PKR R510Q) | AC50 (wild type PKR [1]) | EC50 (PKR K410E) | EC50 (PKR R510Q; Table 4, AC50, enzyme assay) | EC50 (wild type PKR [1]; Table 4, AC50, enzyme assay) | EC50 (wild type PKR [2]; Table 4, AC50, RBCs) | further results |
| --- | --- | --- | --- | --- | --- | --- | --- | --- |
| Cn1c2nc(Cc3cc[nH]n3)sc2c2cnn(Cc3nccc4[nH]ncc34)c(=O)c21 [Compound 199] | – | – | – | < 300 nM | < 300 nM | < 300 nM | ≤ 1000 nM | – |
| Cn1c2nc(Cc3cc[nH]c(=O)c3)sc2c2cnn(Cc3cccc4[nH]ncc34)c(=O)c21 [Compound 200] | – | – | – | < 300 nM | > 800 nM | < 300 nM | ≤ 1000 nM | – |
| Cn1ncc2c(Cn3ncc4c5sc(Cc6cc[nH]n6)nc5n(C)c4c3=O)cccc21 [Compound 201] | – | – | – | < 300 nM | < 300 nM | < 300 nM | ≤ 1000 nM | – |
| Cn1c2nc(Cc3cc[nH]n3)sc2c2cnn(Cc3cccc4nn[nH]c34)c(=O)c21 [Compound 202] | – | – | – | < 300 nM | < 300 nM | < 300 nM | ≤ 1000 nM | – |
| Cn1c2nc(Cc3c[nH]cn3)sc2c2cnn(Cc3cccc4[nH]ncc34)c(=O)c21 [Compound 205] | – | – | – | < 300 nM | < 300 nM | < 300 nM | ≤ 1000 nM | – |
| Cn1c2nc(Cc3csc(C(N)=O)n3)sc2c2cnn(Cc3cccc4[nH]ncc34)c(=O)c21 [Compound 206] | – | – | – | > 800 nM | > 800 nM | > 800 nM | > 1000 nM | – |
| COc1ncc(Cc2nc3c(s2)c2cnn(Cc4cccc5[nH]ncc45)c(=O)c2n3C)cn1 [Compound 207] | – | – | – | 301 to 800 nM | > 800 nM | 301 to 800 nM | ≤ 1000 nM | – |
| CN(c1csc(Cc2cnc(=O)[nH]c2)n1)c1ccnn(Cc2cccc3[nH]ncc23)c1=O [Compound 208] | – | – | – | > 800 nM | > 800 nM | > 800 nM | > 1000 nM | – |
| Cn1c2nc(Cc3ccns3)sc2c2cnn(Cc3cccc4[nH]ncc34)c(=O)c21 [Compound 209] | – | – | – | > 800 nM | > 800 nM | > 800 nM | ≤ 1000 nM | – |
| Cn1c2nc(Cc3cc[nH]n3)sc2c2cnn(Cc3ccc4ccccc4c3)c(=O)c21 [Compound 210] | – | – | – | < 300 nM | < 300 nM | < 300 nM | ≤ 1000 nM | – |
| Cn1c2nc(Cc3cncs3)sc2c2cnn(Cc3cccc4[nH]ncc34)c(=O)c21 [Compound 211] | – | – | – | < 300 nM | < 300 nM | < 300 nM | ≤ 1000 nM | – |
| Cn1c2nc(C(C(N)=O)c3cc[nH]n3)sc2c2cnn(Cc3cccc4[nH]ncc34)c(=O)c21 (centres unmarked) [Compound 212] | – | – | – | < 300 nM | < 300 nM | < 300 nM | ≤ 1000 nM | – |
| Cn1c2nc(Cc3cc[nH]n3)sc2c2cnn(Cc3cn4cccnc4n3)c(=O)c21 [Compound 213] | – | – | – | 301 to 800 nM | 301 to 800 nM | 301 to 800 nM | ≤ 1000 nM | – |
| COc1cc(Cc2nc3c(s2)c2cnn(Cc4cccc5[nH]ncc45)c(=O)c2n3C)ccn1 [Compound 215] | – | – | – | < 300 nM | < 300 nM | < 300 nM | ≤ 1000 nM | – |
| Cn1c2nc(Cc3cnn[nH]3)sc2c2cnn(Cc3cccc4[nH]ncc34)c(=O)c21 [Compound 217] | – | – | – | < 300 nM | < 300 nM | < 300 nM | ≤ 1000 nM | – |
| COc1ncccc1Cc1nc2c(s1)c1cnn(Cc3cccc4[nH]ncc34)c(=O)c1n2C [Compound 219] | – | – | – | < 300 nM | < 300 nM | < 300 nM | ≤ 1000 nM | – |
| Cn1c2nc(Cc3ncsc3Br)sc2c2cnn(Cc3cccc4[nH]ncc34)c(=O)c21 [Compound 220] | – | – | – | < 300 nM | < 300 nM | < 300 nM | ≤ 1000 nM | – |

Source: US11957680B2, “Pyruvate kinase activators for use in treating blood disorders” (Agios Pharmaceuticals, Inc., priority 2017, dated 2024)
